Assay results: patent US20240269155A1, “METHODS AND USES OF BORON COMPOUNDS IN THE TREATMENT OF NONTUBERCULOUS MYCOBACTERIUM INFECTIONS AND PHARMACEUTICAL COMPOSITIONS FOR TREATMENT OF SAME” (priority 2022, published 2024)
Like-named read-outs stand apart in the source and are kept apart here.

Assays:
M. smegmatis = assay: MIC determination (CLSI M24-A2); format: cell-based, Mycobacterium smegmatis
Description: (§1) The in vitro activity of the parent boron compound described herein was assessed by standard testing procedures such as the determination of minimum inhibitory concentration (MIC) as described in Clinical and Laboratory Standards Institute (CLSI) document M24-A2. Lower MIC values indicate high antibacterial activity, while higher MIC values indicate a reduced antibacterial activity. Generally, MIC values of about ≤2 mg/L indicate a good therapeutic (i.e., suitable for therapy) potency for antibacterial drugs, while MIC values of ≥8 mg/L indicate a lack of therapeutically useful activity for a test compound.
(§2) (MIC ranges from 0.063-2 mg/L).

[1] = Lung distribution study in mouse; format: in vivo, Balb/C mouse; settings: 10 mg/kg iv
M. fortuitum = assay: MIC determination (CLSI M24-A2); format: cell-based, Mycobacterium fortuitum
Description: as §1, §2

M. massiliense = assay: MIC determination (CLSI M24-A2); format: cell-based, Mycobacterium massiliense
Description: as §1, §2

[2] = tested on: clinical isolates of M. abscessus complex; assay: MBC against clinical isolates of M. abscessus complex; format: cell-based, M. abscessus and M. massiliense; settings: for Classification: from MBC/MIC ratio
M. gordonae = assay: MIC determination (CLSI M24-A2); format: cell-based, Mycobacterium gordonae
Description: as §1, §2

Mycobacteria pathogens = assay: MIC against mycobacteria pathogens, summary over species; format: cell-based, nontuberculous Mycobacterium; settings: for MIC range: M. intercelleulare, M. fortuitum, M. peregrinum, M. smegmatis, M. massiliense
M. abscessus CIP108297 = assay: M. abscessus mouse lung infection model; format: in vivo, BALB/c mice
Description: To establish the efficacy of the compounds described herein in vivo, an M. abscessusmouse lung infection model was performed. Groups of BALB/c mice (The mice were randomly divided into groups with 6 mice in each group) were administered cyclophosphamide one week before infection, and then inoculated intranasally with M. abscessus CIP108297 (10^7 CFU/mouse). Three days after infection, the mice were subsequently treated with 10 mg/kg of the compound of Example 4 or GSK656 administered daily by subcutaneous, or 100 mg/kg linezolid (an approved antibiotic) or 200 mg/kg clarithromycin (an approved antibiotic) administered daily by oral gavage. […] This may be attributed to the surprising finding of lower MBC in the compound of Example 4.

M. intercelleulare = assay: MIC determination (CLSI M24-A2); format: cell-based, Mycobacterium intercelleulare
Description: as §1, §2

M. peregrinum = assay: MIC determination (CLSI M24-A2); format: cell-based, Mycobacterium peregrinum
Description: as §1, §2

[3] = tested on: clinical isolates of M. abscessus complex; assay: MIC against clinical isolates of M. abscessus complex; format: cell-based, M. abscessus and M. massiliense
M. abscessus = assay: MIC determination (CLSI M24-A2); format: cell-based, Mycobacterium abscessus
Description: as §1, §2

[4] = Rat PK model, intravenous or oral gavage; format: in vivo, SD rats; settings: 5 mg/kg, parent compound Example 4 quantified
From the text: To further elucidate the therapeutic potential of drug compounds, pharmacokinetic (PK) data is often used to establish key parameters predictive of a therapy outcome, such as the area under the curve (AUC) of a plot monitoring the change in systemic drug concentration over time. A higher AUC value indicates a greater exposure to the drug, commonly associated with a greater therapeutic potential due to a higher amount of drug available to combat the infection. In contrast, a lower AUC value indicates a reduced exposure to the drug, resulting in a reduced amount of antibiotic available to combat bacterial infections. To that end, the compounds described herein were tested in the rat PK model of oral administration performed analogously to the methods described in the monograph Current Protocols in Pharmacology, 2005, 7.1.1-7.1.26, John Wiley & Sons, Inc.
All the compounds were administered to SD rats (The rats were randomly divided into groups with 3 rats in each group) by intravenous or oral gavage. The prodrugs convert to the parent drug molecule in vivo. Therefore, only the parent compound Example 4 was analyzed and quantified in all test samples. […] Furthermore, based on the known comparison of rodent tests to human data (such as known species-to-species PK scaling), this is possible with a lower dosage for therapy in humans.

M. scrofulaceum = assay: MIC determination (CLSI M24-A2); format: cell-based, Mycobacterium scrofulaceum
Description: as §1, §2

M. avium = assay: MIC determination (CLSI M24-A2); format: cell-based, Mycobacterium avium
Description: as §1, §2

[5] = 20 clinical isolates of M. abscessus complex

## [(2S,6R)-2-(Aminomethyl)-4-bora-3,5,8-trioxatricyclo[7.3.1.04,13]trideca-1(12),10-dien-6-yl]methanol hydrochloride [Example 4]
M. smegmatis
  MIC: 0.125 mg/L
[1]; analyte Example 4
  AUC ratio (lung/plasma): 2.39
[1]; analyte Example 4, lung
  AUClast: 12822 ng·h/g
  t1/2: 1.46 h
[1]; analyte Example 4, plasma
  AUClast: 5359 ng·h/mL
  t1/2: 1.87 h
M. fortuitum
  MIC: 0.125 mg/L
M. massiliense
  MIC: 0.063 mg/L
[2]
  MBC: 0.125 mg/L
[2]; [5]
  MBC compared with GSK656: much lower MBC against all isolates tested
  bactericidal/bacteriostatic classification over the isolates: bactericidal against half of the isolates
[2]; clinical isolate A35
  MBC: 0.25 mg/L
  Classification: Bactericidal (bactericidal if the MBC/MIC ratio was <4)
[2]; clinical isolate A51
  MBC: 0.25 mg/L
  Classification: Bactericidal (bactericidal if the MBC/MIC ratio was <4)
[2]; clinical isolate A197
  MBC: 1 mg/L
  Classification: Bacteriostatic (bacteriostatic if the ratio was >4)
[2]; clinical isolate A213
  MBC: 0.25 mg/L
  Classification: Bactericidal (bactericidal if the MBC/MIC ratio was <4)
[2]; clinical isolate A215
  MBC: 0.5 mg/L
  Classification: Bacteriostatic (bacteriostatic if the ratio was >4)
[2]; clinical isolate A217
  MBC: 0.5 mg/L
  Classification: Bacteriostatic (bacteriostatic if the ratio was >4)
[2]; clinical isolate A222
  MBC: 0.25 mg/L
  Classification: Bactericidal (bactericidal if the MBC/MIC ratio was <4)
[2]; clinical isolate A232
  Classification: Bactericidal (bactericidal if the MBC/MIC ratio was <4)
[2]; clinical isolate A255
  MBC: 0.25 mg/L
  Classification: Bactericidal (bactericidal if the MBC/MIC ratio was <4)
[2]; clinical isolate A268
  MBC: 2 mg/L
  Classification: Bacteriostatic (bacteriostatic if the ratio was >4)
[2]; clinical isolate A274
  MBC: 2 mg/L
  Classification: Bacteriostatic (bacteriostatic if the ratio was >4)
[2]; clinical isolate A311
  MBC: 0.25 mg/L
  Classification: Bactericidal (bactericidal if the MBC/MIC ratio was <4)
[2]; clinical isolate A353
  MBC: 0.25 mg/L
  Classification: Bactericidal (bactericidal if the MBC/MIC ratio was <4)
[2]; clinical isolate G73
  MBC: 1 mg/L
  Classification: Bacteriostatic (bacteriostatic if the ratio was >4)
[2]; clinical isolate G74
  MBC: 1 mg/L
  Classification: Bacteriostatic (bacteriostatic if the ratio was >4)
[2]; clinical isolate G87
  MBC: 0.5 mg/L
  Classification: Bacteriostatic (bacteriostatic if the ratio was >4)
[2]; clinical isolate G104
  MBC: 0.25 mg/L
  Classification: Bactericidal (bactericidal if the MBC/MIC ratio was <4)
[2]; clinical isolate G110
  MBC: 1 mg/L
  Classification: Bacteriostatic (bacteriostatic if the ratio was >4)
[2]; clinical isolate G164
  MBC: 0.25 mg/L
  Classification: Bactericidal (bactericidal if the MBC/MIC ratio was <4)
[2]; clinical isolate G182
  MBC: 1 mg/L
  Classification: Bacteriostatic (bacteriostatic if the ratio was >4)
M. gordonae
  MIC: 0.5 mg/L
Mycobacteria pathogens; M. avium and M. intercelleulare
  fold more potent than GSK656 (MIC): 4 fold
Mycobacteria pathogens; across M. scrofulaceum, M. gordonae, M. avium, M. abscessus
  MIC range: 0.063 to 2 mg/L
Mycobacteria pathogens; rapidly growing mycobacteria (RGM): M. abscessus
  MIC range: 0.063 to 0.125 mg/L
M. abscessus CIP108297; 10 mg/kg daily subcutaneous, treatment from 3 days after infection, lung CFU at 2 weeks post-infection
  reduction in bacteria in the lungs compared to the untreated groups: ~7.8 log 10 CFU
M. abscessus CIP108297; 2-weeks post-infection, treated group
  lung pathology, H&E stained tissue sections: pathologic changes were rare and lung lesions were negligible
M. abscessus CIP108297; both 10 mg/kg daily subcutaneous, 2 weeks post-infection
  organisms in the lungs compared to animals treated with GSK656: reduced markedly
M. intercelleulare
  MIC: 2 mg/L
M. peregrinum
  MIC: 0.125 mg/L
[3]
  MIC: 0.063 mg/L
[3]; clinical isolate A35
  MIC: 0.063 mg/L
[3]; clinical isolate A51
  MIC: 0.063 mg/L
[3]; clinical isolate A197
  MIC: 0.063 mg/L
[3]; clinical isolate A215
  MIC: 0.063 mg/L
[3]; clinical isolate A217
  MIC: 0.063 mg/L
[3]; clinical isolate A222
  MIC: 0.063 mg/L
[3]; clinical isolate A255
  MIC: 0.063 mg/L
[3]; clinical isolate A311
  MIC: 0.063 mg/L
[3]; clinical isolate G73
  MIC: 0.063 mg/L
[3]; clinical isolate G74
  MIC: 0.063 mg/L
[3]; clinical isolate G87
  MIC: 0.063 mg/L
[3]; clinical isolate G110
  MIC: 0.063 mg/L
[3]; clinical isolate G164
  MIC: 0.063 mg/L
[3]; clinical isolate G182
  MIC: 0.063 mg/L
M. abscessus
  MIC: 0.063 mg/L
[4]; iv
  AUC: 5661 ng·h/mL
  Cmax: 6776 ng/mL
[4]; oral
  AUC: 856 ng·h/mL
  Cmax: 139 ng/mL
  Oral bioavailability: 15%
M. scrofulaceum
  MIC: 0.25 mg/L
M. avium
  MIC: 2 mg/L
